# From US20080194020A1, “Methods For Producing Dendritic Cells That Have Acquired Ctl-Inducing Ability” (Medical and Biological Laboratories Co., Ltd., priority 2004, published 2008)
# “Also recorded” adds a separate entry of the source.
# Experiments:
# Type in all cases: cell-based, mouse
# DC2.4 cells [1] = assay: Polyubiquitination of antigenic protein taken up by DC2.4 cells (SDS-PAGE, Western blot with anti-polyubiquitin antibody); settings: DC2.4 cells incubated with GST-OVA in the presence or absence of Hsp90
# Method: There are reports that when the KDEL sequence (Lys-Asp-Glu-Leu) (SEQ ID NO: 3), an endoplasmic reticulum localization sequence, is added to the carboxyl terminus of a protein localized in the ER lumen, the protein is repeatedly transported between the ER and Golgi apparatus, and ERAD of that protein is promoted. Therefore, DC2.4 cells were made to take up OVA with KDEL (SEQ ID NO: 3) added to its C-terminus, and OVA that was polyubiquitinated after uptake was observed by SDS-PAGE and Western blotting. OVA to which a KDEL sequence (SEQ ID NO: 3) was added was constructed and expressed as follows: using a plasmid comprising a DNA sequence encoding OVA as a template, PCR was performed using oligo-1 (SEQ ID NO: 10) and oligo-2 (SEQ ID NO: 11) as primers. The amplified PCR product of approximately 1100 bp was introduced into a pCR-Blunt vector (Invitrogen) to obtain vector-1. Oligo-3 (SEQ ID NO: 12) and oligo-4 (SEQ ID NO: 13) were annealed, and the obtained gene fragment of approximately 100 bp was introduced into the pCR-Blunt vector to obtain vector-2. Vector-2 was digested with SpeI, the obtained gene fragment of approximately 130 bp was introduced into vector-1 that had been digested with NheI to obtain vector-3. An approximately 1250-bp gene fragment (OVA-KDEL) obtained when vector-3 was digested with BamHI/SpeI was introduced into a vector for gene expression, and then expressed. […]
# DC2.4 cells [2] = assay: MHC class I cross-presentation by DC2.4 cells to OT-I CD8+ T cells (IL-2 ELISA)
# Text: Whether knock-down of cellular components involved in ERAD decreases the cross-presentation of exogenous OVA antigen was examined using a system for evaluating the level of antigen presentation, which uses naive CD8^+ T cells from OT-I mice and DC2.4 cells. The DC2.4 cells used as a model of dendritic cells are of the H-2Kb mouse MHC class I haplotype. OT-I (H-2Kb) mice are transgenic mice expressing a T cell receptor (TCRα and β) that recognizes an antigenic peptide (SIINFEKL) (SEQ ID NO: 15) derived from OVA presented on the H-2Kb molecules. The CD8^+ cells of OT-I mice are activated when they recognize OVA peptides presented by BMDCs derived from H-2Kb mice or by DC2.4 cells. When OVA or bOVA is incubated with and affixed onto DC2.4 cells and the cells are further incubated with naive CD8^+ T cells of OT-I mice, the amount of IL-2 produced by OT-I CD8^+ T cells serves as an index of T-cell stimulation as a result of OVA antigen presented by DC2.4 cells.
# Parental or knocked-down DC2.4 cells were pre-incubated in a culture medium supplemented with 50 μg mL^−1 polymyxin B for 30 minutes in the presence or absence of lactacystin or MG-132, and incubated with OVA (250 μg mL^−1) or SIINFEKL peptides (10 ng mL^−1) for six hours. The cells were washed, fixed with 1% paraformaldehyde, and aliquoted into microtiter plates (5×10^4 per well). 5×10^4 CD8^+ T cells purified from splenocytes of OT-1 mice using magnetic beads were added to each well and after a 24-hour incubation, the IL-2 secretion was measured by ELISA (BD Biosciences) in triplicate.
# DC2.4 cells were incubated with OVA (0, 50, or 250 μg/mL) in RPMI1640/10c% FCS for six hours at 37° C., in the presence or absence of pig-derived HSP90 (10 μg/mL). After washing away the antigen and HSP, OT-I CD8^+ T cells were added, cells were cultured overnight at 37° C., and the amount of IL-2 comprised in the supernatant was measured by the ELISA method.
# The timing of the addition of HSP90 (10 μg/mL) and OVA (250 μg/mL) to DC2.4 cells was varied, and the effect on class I antigen presentation was observed. (i) HSP90 was added first, DC2.4 cells were washed, and then OVA was added. (ii) HSP90 and OVA were added simultaneously to DC2.4 cells. (iii) OVA was added first, and after washing DC2.4 cells, HSP90 was added. The results obtained under these three conditions were compared. As a control for all these conditions, an experiment in which only OVA, but not HSP90, was added was also carried out.
# Under condition (i), HSP90 was added to DC2.4 cells, the cells were cultured for 30 minutes and then washed to remove HSP90. Next, OVA was added and the cells were cultured for three hours. Thereafter, OVA was removed by washing, and cells were cultured in just the culture medium for three hours. DC2.4 cells activated with OVA by the above procedure were plated in a 96-well plate, OT-I mouse-derived CD8^+ T cells were added to this, and after culturing overnight, the amount of IL-2 released into the supernatant was measured by ELISA.
# Under condition (ii), OVA and HSP90 were added simultaneously to DC2.4 cells, cells were cultured for three hours, then washed, and cultured in just the culture medium for three hours. Thereafter, the procedures to investigate the activation of OT-I mouse-derived CD8^+ T cells was carried out similarly to in (i) above.
# Under condition (iii), OVA was first added to DC2.4 cells, cells were cultured for three hours, and then washed to remove OVA. Next, HSP90 was added, and the cells were cultured for another three hours. The procedures that follow were carried out similarly to that of (i) and (ii). Meanwhile, timings were set such that the incubation times during the stage in which cells are in contact with OVA and the stage at which OVA has been taken up were the same under conditions (i) to (iii).
# [3] = tested on: bone marrow-derived dendritic cells (BMDCs); assay: MHC class II antigen presentation by BMDCs to OT-II CD4+ T cells (IL-2 ELISA); settings: HSP90 10 μg/mL added at the same time as OVA (0, 50 or 250 μg/mL)
# Method: Mouse bone marrow-derived dendritic cells (BMDCs) were prepared as follows: cells were taken out from mouse bone marrow and cultured for five days in RPMI medium containing GM-CSF and 5% FCS, during which the medium was partially exchange. This culturing method leads to growth of macrophages, dendritic cells, and such; therefore, dendritic cells alone were collected using CD11c magnetic beads, and these cells were used as bone marrow-derived dendritic cells (BMDCs).
# The bone marrow-derived dendritic cells (BMDCs) prepared as above or the mouse dendritic cell line DC2.4 cells were plated in a 96-well plate at 5×10^4 cells per well. Next, in the presence of 50 μg/mL of polynyxin B, which is an endotoxin inhibitor, OVA (0, 50, or 250 μg/mL)and HSP90 (0 or 10 μg/mL) were added, the total fluid volume was adjusted to 200 μL, and this was cultured overnight at 37° C. Since endotoxin is known to activate DCs, polymyxin B was added to eliminate the effects of its contamination of reagents, equipment, and such. After culturing, the aforementioned cells in the wells were washed twice to remove the remaining OVA and HSP90 that were not taken up by the cells. […] The wells were centrifuged, the supernatant was collected, and the amount of IL-2 in the supernatant was measured by ELISA.
# BMDCs = assay: MHC class I antigen presentation by BMDCs to OT-I CD8+ cells; settings: BMDCs incubated with OVA in the presence or absence of HSP90
# DC2.4 cells [4] = assay: Uptake of antigenic protein into DC2.4 cells
# Method: Next, DC2.4 cells were incubated for a set amount of time with OVA in the presence or absence of lactacystin (LC), and OVA taken up into the cells was measured. OVA taken up into cells in the presence or absence of Hsp90 was measured similarly.
substance,measurement,setting,value
"HSP90: pig-derived HSP90, molecular chaperone (heat shock protein) of about 90 kDa; porcine sequence SEQ ID NO: 1",effect on polyubiquitination of GST-OVA taken up,DC2.4 cells [1],the increase in polyubiquitination in the presence of HSP90 is very pronounced
same,effect on polyubiquitination of GST-OVA taken up,DC2.4 cells [1]; listed as Hsp90,more strongly polyubiquitinated
same,effect on OVA antigen presentation to OT-I CD8+ T cells (IL-2),"DC2.4 cells [2]; DC2.4 cells, OVA 0, 50 or 250 μg/mL, six hours, pig-derived HSP90 10 μg/mL versus OVA alone",a stronger antigen presentation was observed; also recorded: increase antigen presentation
same,Hsp90 concentration dependence of antigen presentation ability,"DC2.4 cells [2]; DC2.4 cells, Hsp90 10 μg/mL and 50 μg/mL",increased in an Hsp90 concentration-dependent manner; also recorded: antigen-presenting ability increases in a manner dependent on Hsp90 concentration
same,effect on IL-2 production versus OVA-only control,"DC2.4 cells [2]; condition (i): HSP90 added first, cells washed, then OVA",cannot be observed unless it is added simultaneously
same,effect on IL-2 production versus OVA-only control,DC2.4 cells [2]; condition (ii): HSP90 10 μg/mL and OVA 250 μg/mL added simultaneously to DC2.4 cells,increase in the amount of IL-2 production
same,effect on IL-2 production versus OVA-only control,"DC2.4 cells [2]; condition (iii): OVA added first, cells washed, then HSP90",not to yield any effect
same,effect on IL-2 production by OT-II CD4+ T cells (MHC class II presentation),[3],not enhanced
same,effect on OVA antigen presentation to OT-I CD8+ cells,BMDCs,increase antigen presentation
same,effect on OVA taken up into cells,DC2.4 cells [4]; DC2.4 cells incubated with OVA in the presence or absence of Hsp90 and lactacystin,take up OVA into cells more efficiently; also recorded: uptake of OVA increased
same,effect on amount of GST-OVA taken up,"DC2.4 cells [4]; FIG. 10 lane 4 versus lane 3, presence or absence of HSP90",the increase in the amount taken up in the presence of HSP90 is not great
